Tests used:
Format in all cases: cell-based
human CXCR4 = target: T1, human CXCR4 (Homo sapiens, UniProt P61073); assay: Functional FLIPR assay (block of SDF-1 alpha induced [Ca2+]i change); details: HEK-293 cells with human CXCR4 and Gqi5 BacMam; antagonism of SDF-1 alpha; read-out: Functional assay (pIC50) (converted)
T1 construct: expressed in transfected cells; host or cells: HEK-293 cells (stably expressing human macrophage scavenger receptor class A type 1), transduced with human CXCR4 BacMam and Gqi5 BacMam baculoviruses
T1 sequence (P61073 whole entry): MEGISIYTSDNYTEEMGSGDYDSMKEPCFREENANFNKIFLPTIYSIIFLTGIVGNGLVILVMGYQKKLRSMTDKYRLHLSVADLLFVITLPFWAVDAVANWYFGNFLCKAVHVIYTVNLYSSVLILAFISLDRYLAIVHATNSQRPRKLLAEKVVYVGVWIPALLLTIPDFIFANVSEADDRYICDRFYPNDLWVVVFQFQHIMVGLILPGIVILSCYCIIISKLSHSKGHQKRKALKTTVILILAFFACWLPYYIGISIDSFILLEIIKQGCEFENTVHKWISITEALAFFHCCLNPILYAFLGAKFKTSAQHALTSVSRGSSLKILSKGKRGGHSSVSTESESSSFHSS
Protocol: Human embryonic kidney (HEK-293) cells were maintained and harvested as described above. Cells were plated in 96-well, black clear bottom, poly-lysine coated plates at a concentration of 40,000 cells per well in a final volume of 100 ul containing human CXCR4 BacMam (MOI=25) and Gqi5 BacMam (MOI=12.5). The cells were incubated at 37° C., 5% CO2, 95% humidity for 24 h to allow for protein expression.
After the required incubation time the cells were washed once with 50 ul of fresh serum-free DMEM/F12 media containing probenicid. 50 ul of dye solution was then added to the cells (Calcium Plus Assay Kit Dye; Molecular Devices) was dissolved in 200 ml of the above probenicid/BSA containing media and incubated for 1 h. Cell plates were transferred to a Fluorometric Imaging Plate Reader (FLIPR). Upon addition the effect of the compounds on the change in [Ca^2+]i was examined to determine if the compounds were agonists or antagonists (ability to block SDF-1 alpha activity) at the CXCR4 receptor. IC50 values are determined and pKb values are calculated using the Leff and Dougall equation: KB=IC50/((2+([agonist]/EC50ˆb)ˆ1/b−1) Where IC50 is that defined by the antagonist concentration-response curve [agonist] is the EC80 concentration of agonist used EC50 is that defined by the agonist concentration-response curve b is the slope of the agonist concentration-response curve.

[1] = test system: HOS (hCXCR4/hCCR5/hCD4/pHIV-LTR-luciferase) cells and HEK-293 cells expressing HIV-1 gp160 (HXB2 strain); assay: Cell/cell fusion assay (luciferase); details: Homo sapiens, HEK293; 24 h, luciferase readout; read-out: Fusion assay (pIC50) (converted)
Source text: The complete coding sequences of HIV-1 tat (GenBank Accession No. X07861) and rev (GenBank Accession No. M34378) were cloned into pcDNA3.1 expression vectors containing G418 and hygromycin resistance genes, respectively. The complete coding sequence of the HIV-1 (HXB2 strain) gp160 envelope gene (nucleotide bases 6225-8795 of GenBank Accession No. K03455) was cloned into plasmid pCRII-TOPO. The three HIV genes were additionally inserted into the baculovirus shuttle vector, pFastBacMam1, under the transcriptional control of the CMV promoter. A construction of the pHIV-I LTR containing mutated NFkB sequences linked to the luciferase reporter gene was prepared by digesting pcDNA3.1, containing the G418 resistance gene, with Nru I and Bam HI to remove the CMV promoter. LTR-luc was then cloned into the Nru I/Bam HI sites of the plasmid vector. Plasmid preparations were performed after the plasmids were amplified in Escherichia coli strain DH5-alpha. The fidelity of the inserted sequences was confirmed by double-strand nucleotide sequencing using an ABI Prism Model 377 automated sequencer.
BacMam Baculovirus Generation
Recombinant BacMam baculoviruses were constructed from pFastBacMam shuttle plasmids by using the bacterial cell-based Bac-to-Bac system. Viruses were propagated in Sf9 (Spodoptera frugiperda) cells cultured in Hink's TNM-FH Insect media supplemented with 10% (v/v) fetal bovine serum and 0.1% (v/v) pluronic F-68 according to established protocols.
Human osteosarcoma (HOS) cells that naturally express human CXCR4 were transfected with human CCR5, human CD4 and the pHIV-LTR-luciferase plasmid using FuGENE 6 transfection reagent. Single cells were isolated and grown under selection condition in order to generate a stable HOS (hCXCR4/hCCR5/hCD4/pHIV-LTR-luciferase) clonal cell line. The cells were maintained in Dulbeccos modified Eagles media supplemented with 10% fetal calf serum (FCS), G418 (400 ug/ml), puromycin (1 ug/ml), mycophenolic acid (40 ug/ml), xanthine (250 ug/ml) and hypoxanthine (13.5 ug/ml) to maintain a selection pressure for cells expressing the LTR-luciferase, hCCR5 and hCD4, respectively. Human embryonic kidney (HEK-293) cells stably transfected to express the human macrophage scavenging receptor (Class A, type 1; GenBank Accession No. D90187), were maintained in DMEM/F-12 media (1:1) supplemented with 10% FCS and 1.5 ug/ml puromycin. The expression of this receptor by the HEK-293 cells enhances their ability to stick to tissue culture treated plasticware.
Transduction of HEK-293 cells
HEK-293 cells were harvested using enzyme-free cell dissociation buffer. The cells were resuspended in DMEM/F-12 media supplemented with 10% FCS and 1.5 ug/ml and counted. Tranductions were performed by direct addition of BacMam baculovirus containing insect cell media to cells. The cells were simultaneously transduced with BacMam baculovirus expressing HIV-1 tat, HIV-1 rev and HIV-1 gp160 (from the HXB2 HIV strain). Routinely an MOI of 10 of each virus was added to the media containing the cells. 2 mM butyric acid was also added to the cells at this stage to increase protein expression in transduced cells. The cells were subsequently mixed and seeded into a flask at 30 million cells per T225. The cells were incubated at 37° C., 5% CO2, 95% humidity for 24 h to allow for protein expression.
Cell/Cell Fusion Assay Format
HEK and HOS cells were harvested in DMEM/F-12 media containing 2% FCS and DMEM media containing 2% FCS, respectively, with no selection agents added. Compounds were plated as 1 ul spots in 100% DMSO on a 96-well CulturPlate plates. HOS cells (50 ul) were added first to the wells, followed immediately by the HEK cells (50 ul). The final concentration of each cell type was 20,000 cells per well. Following these additions, the cells were returned to a tissue culture incubator (37° C.; 5% CO2/95% air) for an additional 24 h.
Measurement of Luciferase Production […]

[2] = Compound cytotoxicity in the absence of virus (CellTiter-Glo); details: human; HOS cells, no virus; read-out: Cytotox (pIC50) (converted)
Protocol: (§1) Compounds were profiled against two HIV-1 viruses, the M-tropic (CCR5 utilizing) Ba-L strain and the T-tropic (CXCR4 utilizing) IIIB strain. Both viruses were propagated in human peripheral blood lymphocytes. Compounds were tested for there ability to block infection of the HOS cell line (expressing hCXCR4/hCCR5/hCD4/pHIV-LTR-luciferase) by either HIV-1 Ba-L or HIV-1 IIIB. Compound cytotoxicity was also examined in the absence of virus addition.
(§2) HOS cells (expressing hCXCR4/hCCR5/hCD4/pHIV-LTR-luciferase) were harvested and diluted in Dulbeccos modified Eagles media supplemented with 2% FCS and non-essential amino acid to a concentration of 60,000 cells/ml. The cells were plated into 96-well plates (100 ul per well) and the plates were placed in a tissue culture incubator (37° C.; 5% CO2/95% air) for a period of 24 h.
(§3) Subsequently, 50 ul of the desired drug solution (4 times the final concentration) was added to each well and the plates were returned to the tissue culture incubator (37° C.; 5% CO2/95% air) for 1 h. Following this incubation 50 ul of diluted virus was added to each well (approximately 2 million RLU per well of virus). The plates were returned to the tissue culture incubator (37° C.; 5% CO2/95% air) and were incubated for a further 96 h.
(§4) Following this incubation the endpoint for the virally infected cultures was quantified following addition of Steady-Glo Luciferase assay system reagent (Promega, Madison, Wis.). Cell viability or non-infected cultures was measured using a CellTiter-Glo luminescent cell viability assay system (Promega, Madison, Wis.). All luminescent readouts are performed on a Topcount luminescence detector (Packard, Meridien, Conn.).

HIV-1 IIIB = assay: HOS HIV-1 infectivity assay, IIIB strain; details: Human immunodeficiency virus 1; HOS cells, HIV-1 IIIB (T-tropic, CXCR4 utilizing), 96 h; read-out: HOS (3B)
Protocol: HOS HIV-1 Infectivity Assay
as §1
HOS HIV-1 Infectivity Assay Format
as §2, §3, §4

HIV = assay: HOS HIV infectivity assay (Table 2, strain not given); details: Human immunodeficiency virus 1, read-out: Activity Level
Outline: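 HOS cells expressing hCXCR4/hCCR5/hCD4 and an HIV-LTR-luciferase reporter were preincubated with compound for 1 h in DMEM/2% FCS. They were then infected with HIV-1 Ba-L or IIIB (about 2 million RLU/well) for 96 h at 37° C. Infection was read by luciferase luminescence, and viability in uninfected cultures by CellTiter-Glo.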

Row | SMILES | IC50 (human CXCR4) | IC50 [1] | IC50 at 96 h [2] | IC50 (HIV-1 IIIB) | IC50 (HIV)
1 | CC(C)N1CCN(c2cccc3nc(CN(CC(F)(F)F)C4CCCc5cccnc54)cn23)CC1 (stereo not drawn) [Example 17, N-({5-[4-(1-Methylethyl)-1-piperazinyl]imidazo[1,2-a]pyridin-2-yl}methyl)-N-(2,2,2-trifluoroethyl)-5,6,7,8-tetrahydro-8-quinolinamine] | 8.91 nM | 2140 nM | > 100000 nM | 300 nM | 100 to 500 nM
2 | CCN1CCN(c2cccc3nc(CN(C)C4CCCc5cccnc54)cn23)CC1 (stereo not drawn) [Example 7, N-{[5-(4-Ethyl-1-piperazinyl)imidazo[1,2-a]pyridin-2-yl]methyl}-N-methyl-5,6,7,8-tetrahydro-8-quinolinamine] | 6.92 nM | 11.2 nM | > 100000 nM | 11 nM | < 100 nM
3 | CC1CN(c2cccc3nc(CN(C)C4CCCc5cccnc54)cn23)CC(C)N1C (stereo not drawn) [Example 13, N-Methyl-N-{[5-(3,4,5-trimethyl-1-piperazinyl)imidazo[1,2-a]pyridin-2-yl]methyl}-5,6,7,8-tetrahydro-8-quinolinamine] | 18.2 nM | 77.6 nM | > 100000 nM | 62 nM | < 100 nM
4 | CN1CCN(c2cccc3nc(CN(CC(F)(F)F)C4CCCc5cccnc54)cn23)CC1 (stereo not drawn) [Example 16, N-{[5-(4-Methyl-1-piperazinyl)imidazo[1,2-a]pyridin-2-yl]methyl}-N-(2,2,2-trifluoroethyl)-5,6,7,8-tetrahydro-8-quinolinamine] | 4.37 nM | 417 nM | > 100000 nM | 145 nM | 100 to 500 nM
5 | CN(Cc1cn2c(-c3ccncc3)cccc2n1)C1CCCc2cccnc21 (stereo not drawn) [Example 19, N-Methyl-N-{[5-(4-pyridinyl)imidazo[1,2-a]pyridin-2-yl]methyl}-5,6,7,8-tetrahydro-8-quinolinamine] | 20.4 nM | 3160 nM | > 100000 nM | 280 nM | 100 to 500 nM
6 | CC(C)N1CCN(c2cccc3nc(CN(C)C4CCCc5cccnc54)cn23)CC1 (stereo not drawn) [Example 8, N-Methyl-N-({5-[4-(1-methylethyl)-1-piperazinyl]imidazo[1,2-a]pyridin-2-yl}methyl)-5,6,7,8-tetrahydro-8-quinolinamine] | 9.77 nM | 22.4 nM | > 100000 nM | 16 nM | < 100 nM
7 | CC1CN(c2cccc3nc(CN(C)C4CCCc5cccnc54)cn23)CC(C)N1 (stereo not drawn) [Example 12, N-{[5-(3,5-Dimethyl-1-piperazinyl)imidazo[1,2-a]pyridin-2-yl]methyl}-N-methyl-5,6,7,8-tetrahydro-8-quinolinamine] | 28.2 nM | 166 nM | > 100000 nM | 87 nM | < 100 nM
8 | CN(Cc1cn2c(N3CCN(C(=O)OC(C)(C)C)CC3)cccc2n1)C1CCCc2cccnc21 (stereo not drawn) [Example 9, 1,1-Dimethylethyl 4-(2-{[methyl(5,6,7,8-tetrahydro-8-quinolinyl)amino]methyl}imidazo[1,2-a]pyridin-5-yl)-1-piperazinecarboxylate] | 363 nM | 912 nM | > 100000 nM | 300 nM | –
9 | CC(C)N(Cc1cn2c(N3CCN(C)CC3)cccc2n1)C1CCCc2cccnc21 (stereo not drawn) [Example 14, N-(1-Methylethyl)-N-{[5-(4-methyl-1-piperazinyl)imidazo[1,2-a]pyridin-2-yl]methyl}-5,6,7,8-tetrahydro-8-quinolinamine] | 2 nM | 21.9 nM | > 100000 nM | 13 nM | < 100 nM
10 | CN(C)CCN(C)c1cccc2nc(CN(C)C3CCCc4cccnc43)cn12 (stereo not drawn) [Example 11, N,N,N′-Trimethyl-N′-(2-{[methyl(5,6,7,8-tetrahydro-8-quinolinyl)amino]methyl}imidazo[1,2-a]pyridin-5-yl)-1,2-ethanediamine] | 33.9 nM | 67.6 nM | > 100000 nM | 32 nM | < 100 nM
11 | CN1CCN(c2cccc3nc(CN(C)C4CCCc5cccnc54)cn23)CC1 (stereo not drawn) [Example 6, N-Methyl-N-{[5-(4-methyl-1-piperazinyl)imidazo[1,2-a]pyridin-2-yl]methyl}-5,6,7,8-tetrahydro-8-quinolinamine] | 7.94 nM | 3.31 nM | > 100000 nM | 6.3 nM | < 100 nM
